Measured values: patent US12018021B2 (UCB Biopharma SRL, priority 2018, dated 2024)

How the values were obtained:
[1] = biological target: IgE-Tb / FcεRIα-Y131A-AF488 (Homo sapiens, UniProt P01854); test: IgE-Tb / FcεRIα-Y131A-AF488 FRET assay (protocol for examples 1 to 233); type: binding; conditions: examples 1 to 233: 5 nM IgE-Tb, 25 nM FcεRIα-Y131A-AF488, incubated 2 hours at room temperature; read-out: Y131A FRET IC50 range
Protocol: For examples 1 to 233, the assay was conducted according to the following: Each assay reaction was conducted in a volume of 25 μl in a 384-well half-volume plate. 10 point compound serial dilutions (3-fold) were generated in DMSO at a concentration of ×50 that of the final assay concentration (FAC). Compound solutions were then prepared by IgE-Tb diluting 10-fold in assay buffer. For the assay, 5 μl of diluted compound was added to 10 μl of, followed by addition of 10 μl FcεRIα-Y131A-AF488. FRET reagents FACs were 5 nM IgE-Tb, 25 nM FcεRIα-Y131A-AF488. Usually the top FAC of compound in the assay was 10 μM. The final DMSO concentration was 2%. The minimum signal (MIN) was measured by adding 5l unlabelled FcεRIα at 1 μM (FAC=200 nM) to the FRET reagents. The maximum FRET signal (MAX) was measured in wells containing FRET reagents but no compound. The assay was incubated for 2 hours at room temperature, protected from light and evaporation, and with gentle agitation.
Measurement of FRET for each well was carried out by exciting at 330 nm and measuring emission at 495/520 nm using an Envision plate reader (Perkin Elmer). FRET ratio was calculated as follows: Emission at 520/Emission at 495×1000.
The FRET ratio was used for the data analysis.
Z′ was calculated as follows (σ=standard deviation and μ=mean): 1−((3×σMAX)+(3×σMIN))/(μMAX−μMIN)
Z′ above 0.5 was considered a good assay.
Background signal (MIN) was subtracted from all wells. Using the background subtracted values, the percent inhibition by compound in each test-well was calculated as follows: 100−Test-well FRET ratio/MAX FRET ratio×100.
Percent inhibition was plotted against compound concentration. IC50 values for each compound were determined using four parameter logistic fit model using the XLFIT5 software package.

[2] = biological target: IgE-Tb / sFcεRIα-Y131A-AF488 (Homo sapiens, UniProt P01854, N146Q/N252Q); test: IgE-Tb / sFcεRIα-Y131A-AF488 FRET assay (protocol for examples 234 to 501); type: binding; conditions: examples 234 to 501: compound with IgE-Tb 30 minutes before sFcεRIα-Y131A-AF488, incubated 18 hours at room temperature; read-out: Y131A FRET IC50 range
Outline: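 Compounds (10-point 3-fold series, top usually 10 μM, 2% DMSO) preincubated 30 min with 5 nM IgE-Tb, then 25 nM sFcεRIα-Y131A-AF488 added; 18 h at room temperature in the dark. TR-FRET ratio 520/490 nm after 337 nm excitation, background-subtracted; IC50 by four-parameter logistic fit.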

IgE-Tb / sFcεRIα-Y131A-AF488, sequence (P01854 whole entry N146Q/N252Q): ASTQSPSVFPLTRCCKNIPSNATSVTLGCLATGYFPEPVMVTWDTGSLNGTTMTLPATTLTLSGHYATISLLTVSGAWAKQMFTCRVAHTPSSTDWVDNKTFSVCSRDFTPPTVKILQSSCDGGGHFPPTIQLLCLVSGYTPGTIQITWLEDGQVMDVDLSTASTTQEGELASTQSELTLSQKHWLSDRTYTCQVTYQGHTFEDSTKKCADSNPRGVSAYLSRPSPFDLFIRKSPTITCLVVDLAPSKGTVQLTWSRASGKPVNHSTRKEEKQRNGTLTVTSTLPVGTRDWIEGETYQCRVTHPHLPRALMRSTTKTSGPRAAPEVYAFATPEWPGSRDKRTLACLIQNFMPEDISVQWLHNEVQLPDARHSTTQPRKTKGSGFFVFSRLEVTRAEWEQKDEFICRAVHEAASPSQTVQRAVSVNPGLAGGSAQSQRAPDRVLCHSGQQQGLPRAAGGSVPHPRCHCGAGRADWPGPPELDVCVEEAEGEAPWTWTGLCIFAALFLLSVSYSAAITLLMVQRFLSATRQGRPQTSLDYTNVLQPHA
IgE-Tb / FcεRIα-Y131A-AF488, sequence (P01854 1-427 limits assumed, stated change not applied): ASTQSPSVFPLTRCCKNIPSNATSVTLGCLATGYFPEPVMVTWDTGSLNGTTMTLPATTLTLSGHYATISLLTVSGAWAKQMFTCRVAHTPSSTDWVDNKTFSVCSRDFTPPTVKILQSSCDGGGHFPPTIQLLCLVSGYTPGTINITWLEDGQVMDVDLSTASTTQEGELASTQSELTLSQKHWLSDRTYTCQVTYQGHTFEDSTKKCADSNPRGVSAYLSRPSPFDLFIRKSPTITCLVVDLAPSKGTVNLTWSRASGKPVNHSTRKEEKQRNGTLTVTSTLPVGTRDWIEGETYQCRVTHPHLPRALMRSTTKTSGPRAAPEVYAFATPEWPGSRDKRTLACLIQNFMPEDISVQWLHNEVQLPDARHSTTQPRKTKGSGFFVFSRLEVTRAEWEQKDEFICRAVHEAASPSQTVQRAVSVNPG

| Compound | IC50 [1] | IC50 [2] |
| --- | --- | --- |
| N#CN=C(NCC(F)(F)F)NC1CCc2sc(NC(=O)C3CC3)c(C(=O)NCC3CC3)c2C1 (stereo not drawn) [Example 121, 5-[[N′-cyano-N-(2,2,2-trifluoroethyl)carbamimidoyl]amino]-2-(cyclopropanecarbonylamino)-N-(cyclopropylmethyl)-4,5,6,7-tetrahydrobenzothiophene-3-carboxamide] | < 1 µM |  |
| Cc1ccc(NC(=NC#N)NC2CCc3sc(NC(=O)C4CC4)c(S(=O)(=O)NCC4CC4)c3C2)cc1 (stereo not drawn) [Example 30, N-[5-[[N′-Cyano-N-(p-tolyl)carbamimidoyl]amino]-3-(cyclopropylmethylsulfamoyl)-4,5,6,7-tetrahydrobenzothiophen-2-yl]cyclopropanecarboxamide] | < 1 µM |  |
| COC1CN(C(=O)c2c(NC(=O)C3CC3)sc3c2CCCC3)C1 [Example 77] | 1 to 10 µM |  |
| CCNC(=NC#N)N[C@H]1CCc2sc(NC(=O)C3CC3)c(C(=O)NCC3CC3)c2C1 [Example 156, (5S)-5-[[N′-cyano-N-ethyl-carbamimidoyl]amino]-2-(cyclopropanecarbonylamino)-N-(cyclopropylmethyl)-4,5,6,7-tetrahydrobenzothiophene-3-carboxamide] | < 1 µM |  |
| Cc1ccc(-c2cnc(C3CCc4sc(NC(=O)C5CC5)c(C(=O)NCC5CC5)c4C3)[nH]2)cc1 (stereo not drawn) [Example 63, 2-(Cyclopropanecarbonylamino)-N-(cyclopropylmethyl)-5-[5-(p-tolyl)-1H-imidazol-2-yl]-4,5,6,7-tetrahydrobenzothiophene-3-carboxamide] | < 1 µM |  |
| O=C(OCC1CC1)c1c(NC(=O)C2CC2)sc2c1CC(NC(=S)Nc1cccnc1)CC2 (stereo not drawn) [Example 93, Cyclopropylmethyl 2-(cyclopropanecarbonylamino)-5-(3-pyridylcarbamothioylamino)-4,5,6,7-tetrahydrobenzothiophene-3-carboxylate] | 1 to 10 µM |  |
| Cc1nnc(-c2ccc(N[C@H]3CCc4sc(NC(=O)C5CC5)c(C(=O)NCC5CC5)c4C3)cn2)o1 [Example 159, (5S)-2-(cyclopropanecarbonylamino)-N-(cyclopropylmethyl)-5-[[6-(5-methyl-1,3,4-oxadiazol-2-yl)-3-pyridyl]amino]-4,5,6,7-tetrahydrobenzothiophene-3-carboxamide] | < 1 µM |  |
| CC1(CNc2nncn2[C@H]2CCc3sc(NC(=O)C4CC4)c(C(=O)NCC4CC4)c3C2)CC1 [Example 112, (5S)-2-(Cyclopropanecarbonylamino)-N-(cyclopropylmethyl)-5-[3-[(1-methylcyclopropyl)methylamino]-1,2,4-triazol-4-yl]-4,5,6,7-tetrahydrobenzothiophene-3-carboxamide] | < 1 µM |  |
| Cc1nnc(C2CCc3sc(NC(=O)C4CC4)c(C(=O)NCC4CC4)c3C2)o1 (stereo not drawn) [Example 72, 2-(Cyclopropanecarbonylamino)-N-(cyclopropylmethyl)-5-(5-methyl-1,3,4-oxadiazol-2-yl)-4,5,6,7-tetrahydrobenzothiophene-3-carboxamide] | 1 to 10 µM |  |
| O=C(Nc1sc2c(c1S(=O)(=O)NCC1CC1)CCCC2)C1CC1 [Example 15, N-[3-(Cyclopropylmethylsulfamoyl)-4,5,6,7-tetrahydrobenzothiophen-2-yl]cyclopropanecarboxamide] | < 1 µM |  |
| CC1CC(=O)c2sc(NC(=O)C3CC3)c(C(=O)NCC3CC3)c2C1 (stereo not drawn) [Example 85, 2-(Cyclopropanecarbonylamino)-N-(cyclopropylmethyl)-5-methyl-7-oxo-5,6-dihydro-4H-benzothiophene-3-carboxamide] | 1 to 10 µM |  |
| O=C(Nc1sc2c(c1S(=O)(=O)NC1CC(F)C1)CCCC2)C1CC1 (stereo not drawn) [Example 21, N-[3-[(3-Fluorocyclobutyl)sulfamoyl]-4,5,6,7-tetrahydrobenzothiophen-2-yl]cyclopropanecarboxamide] | < 1 µM |  |
| COc1ccc(NC(=NC#N)NC2CCc3sc(NC(=O)C4CC4)c(C(=O)NCC4CC4)c3C2)cc1OC (stereo not drawn) [Example 116, 5-[[N′-Cyano-N-(3,4-dimethoxyphenyl)carbamimidoyl]amino]-2-(cyclopropanecarbonylamino)-N-(cyclopropylmethyl)-4,5,6,7-tetrahydrobenzothiophene-3-carboxamide] | < 1 µM |  |
| Cc1cc(Nc2nncn2C2CCc3sc(NC(=O)C4CC4)c(S(=O)(=O)NCC(C)C)c3C2)n(C)n1 (stereo not drawn) [Example 167] | < 1 µM |  |
| COc1nn(C)cc1Nc1nncn1[C@H]1CCc2sc(NC(=O)C3CC3)c(C(=O)NCC3CC3)c2C1 [Example 227, (5S)-2-(cyclopropanecarbonylamino)-N-(cyclopropylmethyl)-5-[3-[(3-methoxy-1-methy-pyrazol-4-yl)amino]-1,2,4-triazol-4-yl]-4,5,6,7-tetrahydrobenzothiophene-3-carboxamide] | < 1 µM |  |
| COC(=O)CN1CCc2sc(NC(=O)C3CC3)c(C(=O)NCC3CC3)c2C1 [Example 12, Methyl 2-[2-(cyclopropanecarbonylamino)-3-(cyclopropylmethylcarbamoyl)-6,7-dihydro-4H-thieno[3,2-c]pyridin-5-yl]acetate] | 10 to 50 µM |  |
| Cc1cc(Nc2nncn2[C@H]2CCc3sc(NC(=O)C4CC4)c(C(=O)NCC4CC4)c3C2)n(C(C)C)n1 [Example 222, (5S)-2-(cyclopropanecarbonylamino)-N-(cyclopropylmethyl)-5-[3-[(2-isopropyl-5-methyl-pyrazol-3-yl)amino]-1,2,4-triazol-4-yl]-4,5,6,7-tetrahydrobenzothiophene-3-carboxamide] | < 1 µM |  |
| C[C@H]1C[C@@H]1C(=O)Nc1sc2c(c1C(=O)NC[C@H]1C[C@H](F)C1)C[C@@H](n1cnnc1Nc1cc(C(F)F)nn1C)CC2 [Example 437, (5S)-5-[3-[[5-(difluoromethyl)-2-methylpyrazol-3-yl]amino]-1,2,4-triazol-4-yl]-N-[trans-(3-fluorocyclobutyl)methyl]-2-[[(1S,2S)-2-methylcyclopropanecarbonyl]amino]-4,5,6,7-tetrahydro-1-benzothiophene-3-carboxamide] |  | < 1 µM |
| Cn1nc(C(F)F)cc1Nc1nncn1[C@H]1CCc2sc(NC(=O)[C@H]3C[C@@H](F)C3)c(C(=O)NC[C@H]3C[C@H](F)C3)c2C1 (single isomer, unassigned) [Example 475] |  | < 1 µM |
| Cn1nc(C(F)F)cc1Nc1nncn1[C@H]1CCc2sc(NC(=O)[C@H]3CC34CC4)c(C(=O)NC[C@H]3C[C@@H]3F)c2C1 [Example 413, (5S)-5-[3-[[5-(Difluoromethyl)-2-methylpyrazol-3-yl]amino]-1,2,4-triazo-4-yl]-N-[[(1R,2S)-2-fluorocyclopropyl]methyl]-2-[[(25)-spiro[2.2]pentane-2-carbonyl]amino]-4,5,6,7-tetrahydro-1-benzothiophene-3-carboxamide] |  | < 1 µM |
| C[C@H]1C[C@@H]1C(=O)Nc1sc2c(c1C(=O)NC[C@H]1C[C@@H](F)C1)C[C@@H](n1cnnc1Nc1cc(C(F)F)nn1C)CC2 [Example 442, (5S)-5-[3-[[5-(difluoromethyl)-2-methylpyrazol-3-yl]amino]-1,2,4-triazol-4-yl]-N-[cis-(3-fluorocyclobutyl)methyl]-2-[[(1S,2S)-2-methylcyclopropanecarbonyl]amino]-4,5,6,7-tetrahydro-1-benzothiophene-3-carboxamide] |  | < 1 µM |
| Cn1nc(C(F)(F)F)cc1Nc1nncn1[C@H]1CCc2sc(NC(=O)[C@H]3C[C@H]3F)c(C(=O)NC[C@H]3CC3(F)F)c2C1 (single isomer, unassigned) [Example 397] |  | < 1 µM |
| C[C@@H]1C[C@@H]1C(=O)Nc1sc2c(c1C(=O)NCC1CC1)C[C@@H](n1cnnc1Nc1cc(OC(F)F)nn1C)CC2 [Example 306, (5S)—N-(cyclopropylmethyl)-5-[3-[[5-(difluoromethoxy)-2-methyl-pyrazol-3-yl]amino]-1,2,4-triazol-4-yl]-2-[[(1S,2R)-2-methylcyclopropanecarbonyl]amino]-4,5,6,7-tetrahydrobenzothiophene-3-carboxamide] |  | < 1 µM |
| CCOC(=O)c1c(NC(=O)C2CC23CC3)sc2c1C[C@@H](n1cnnc1Nc1cc(C(F)F)nn1C)CC2 (mixture of isomers) [Example 417a, Ethyl (5S)-5-[3-[[5-(difluoromethyl)-2-methyl-pyrazol-3-yl]amino]-1,2,4-triazol-4-yl]-2-(spiro[2.2]pentane-2-carbonylamino)-4,5,6,7-tetrahydrobenzothiophene-3-carboxylate] |  | < 1 µM |
